According to patent US11046713B2, “Androgen receptor modulating compounds” (ORION CORPORATION, priority 2009, dated 2021):

Tested on: VCaP prostate cancer cell line
Assay: Inhibition of mibolerone-induced VCaP cell proliferation (WST-1)
Assay type: cell-based
Conditions: mibolerone-induced (usually 0.1 nM), 4-5 days
Description: The IC50 value of the test compound for inhibition of mibolerone-induced VCaP cell proliferation was measured.
Cell Proliferation Assays
The ability of test compounds to inhibit prostate cancer cell growth was studied by measuring inhibition of cell proliferation using androgen-sensitive VCaP prostate cancer cell line. […] Cell proliferation was measured using WST-1 Cell Proliferation Assay (Roche).

SMILES | IC50 (Homo sapiens, VCaP) [nM] | IC50 [nM]
O=C(NCCc1ccc(-c2ccc(Cl)c(Cl)c2)o1)c1cc(C(=O)N2CCOCC2)n[nH]1 [Example 8, N-(2-(5-(3,4-dichlorophenyl)furan-2-yl)ethyl)-3-(morpholine-4-carbonyl)-1H-pyrazole-5-carboxamide] | 1600 | –
Cc1cc(-c2ccn(C[C@H](C)NC(=O)c3cc(-c4ccco4)n[nH]3)n2)ccc1C#N [Example 32, (S)—N-(1-(3-(4-cyano-3-methylphenyl)-1H-pyrazol-1-yl)propan-2-yl)-3-(furan-2-yl)-1H-pyrazole-5-carboxamide] | 560 | –
N#Cc1ccc(-c2ccn(CCNC(=O)c3cc(-c4cccnc4)n[nH]3)n2)cc1C#N [Example 52, N-(2-(3-(3,4-dicyanophenyl)-1H-pyrazol-1-yl)ethyl)-3-(pyridin-3-yl)-1H-pyrazole-5-carboxamide] | 450 | –
Cc1cc(-c2ccn(CCNC(=O)c3cc(-c4cccnc4)n[nH]3)n2)ccc1C#N [Example 53, N-(2-(3-(4-cyano-3-methylphenyl)-1H-pyrazol-1-yl)ethyl)-3-(pyridin-3-yl)-1H-pyrazole-5-carboxamide] | 500 | –
CCc1noc(C(=O)N[C@@H](C)Cn2ccc(-c3ccc(C#N)c(Cl)c3)n2)n1 [Example 91, (S)—N-(1-(3-(3-chloro-4-cyanophenyl)-1H-pyrazol-1-yl)propan-2-yl)-3-ethyl-1,2,4-oxadiazole-5-carboxamide] | 330 | –
Cc1nc(-c2cc(C(=O)N[C@@H](C)Cn3ccc(-c4ccc(C#N)c(Cl)c4)n3)n[nH]2)cs1 [Example 94, (S)—N-(1-(3-(3-chloro-4-cyanophenyl)-1H-pyrazol-1-yl)propan-2-yl)-5-(2-methylthiazol-4-yl)-1H-pyrazole-3-carboxamide] | 790 | –
Cc1noc(C(=O)N[C@@H](C)Cn2ccc(-c3ccc(C#N)c(Cl)c3)n2)n1 [Example 103, (S)—N-(1-(3-(3-chloro-4-cyanophenyl)-1H-pyrazol-1-yl)propan-2-yl)-3-methyl-1,2,4-oxadiazole-5-carboxamide] | 230 | –
CC(O)c1cc(C(=O)N[C@@H](C)Cn2ccc(-c3ccc(C#N)c(Cl)c3)n2)no1 (stereo partly drawn) [Example 124, N—((S)-1-(3-(3-chloro-4-cyanophenyl)-1H-pyrazol-1-yl)propan-2-yl)-5-(1-hydroxyethyl)isoxazole-3-carboxamide] | 430 | –
C[C@H](Cn1ccc(-c2ccc(C#N)c(Cl)c2)n1)NC(=O)c1csc(N2CCOCC2)n1 [Example 132, (R)—N-(1-(3-(3-chloro-4-cyanophenyl)-1H-pyrazol-1-yl)propan-2-yl)-2-morpholinothiazole-4-carboxamide] | 210 | –
Cc1c(-c2ccn(C[C@H](C)NC(=O)c3csc(C(C)O)n3)n2)ccc(C#N)c1Cl (stereo partly drawn) [Example 186, N—((S)-1-(3-(3-chloro-4-cyano-2-methylphenyl)-1H-pyrazol-1-yl)propan-2-yl)-2-(1-hydroxyethyl)thiazole-4-carboxamide] | 310 | –
C[C@@H](Cn1ccc(-c2ccc(C#N)c(Cl)c2)n1)NC(=O)c1csc(-c2cn[nH]c2)n1 [Example 206, (S)—N-(1-(3-(3-chloro-4-cyanophenyl)-1H-pyrazol-1-yl)propan-2-yl)-2-(1H-pyrazol-4-yl)thiazole-4-carboxamide] | 490 | –
C[C@H](CNC(=O)c1csc(CC#N)n1)n1ccc(-c2cc(F)c(C#N)c(F)c2)n1 [Example 222, (R)—N-(2-(3-(4-cyano-3,5-difluorophenyl)-1H-pyrazol-1-yl)propyl)-2-(cyanomethyl)thiazole-4-carboxamide] | 250 | –
Cc1nc(C(=O)N[C@@H](C)Cn2ccc(-c3ccc(C#N)c(Cl)c3)n2)c[nH]1 [Example 248, (S)—N-{1-[3-(3-Chloro-4-cyanophenyl)-1H-pyrazol-1-yl]propan-2-yl}-2-methyl-H-imidazole-4-carboxamide] | – | 490
Cc1nc(C(=O)N[C@@H](C)Cn2ccc(-c3cc(F)c(C#N)c(Cl)c3)n2)c[nH]1 [Example 249, (S)—N-{1-[3-(3-Chloro-4-cyano-5-fluorophenyl)-1H-pyrazol-1-yl]propan-2-yl}-2-methyl-1H-imidazole-4-carboxamide] | 320 | –
C[C@@H](Cn1ccc(-c2cc(F)c(C#N)c(Cl)c2)n1)NC(=O)c1cn2cccnc2n1 [Example 324, (S)—N-(1-(3-(3-chloro-4-cyano-5-fluorophenyl)-1H-pyrazol-1-yl)propan-2-yl)imidazo [1,2-a]pyrimidine-2-carboxamide] | 1000 | –
C[C@@H](Cn1ccc(-c2ccc(C#N)c(Cl)c2)n1)NC(=O)c1[nH]nc2c1COCC2 [Example 338, (S)—N-(1-(3-(3-chloro-4-cyanophenyl)-1H-pyrazol-1-yl)propan-2-yl)-2,4,6,7-tetrahydropyrano [4,3-c]pyrazole-3-carboxamide] | 340 | –
